Consider 28 molecules from ChEMBL document CHEMBL1177790, “Activity of substituted thiophene sulfonamides against malarial and mammalian cyclin dependent protein kinases” (Bioorg Med Chem Lett, 2010).

Each structure is given as a SMILES string.

The target of series [1] is T1, Protein kinase Pfmrk (Plasmodium falciparum, UniProt P90584).
T1 sequence (P90584 whole entry): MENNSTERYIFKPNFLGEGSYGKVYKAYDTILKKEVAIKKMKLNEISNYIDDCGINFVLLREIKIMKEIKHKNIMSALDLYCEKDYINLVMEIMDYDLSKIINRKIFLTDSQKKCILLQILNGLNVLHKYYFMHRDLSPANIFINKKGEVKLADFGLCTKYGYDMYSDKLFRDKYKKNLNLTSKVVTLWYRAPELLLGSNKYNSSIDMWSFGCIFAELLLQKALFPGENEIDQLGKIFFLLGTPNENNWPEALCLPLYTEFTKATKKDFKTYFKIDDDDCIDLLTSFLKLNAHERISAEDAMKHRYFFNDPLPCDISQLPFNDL
Description: Inhibition of His6x-tagged Plasmodium falciparum Pfmrk expressed in Escherichia coli by microtiter plate scintillation counting.

For series [2], the system named is RAW264.7. Description: Cytotoxicity against mouse RAW264.7 cells after 24 hrs by MTT assay. Format: cell-based. The conditions noted are these: RAW264.7, 24 h. Background: Formazan colour is commonly taken as a measure of viable cells.
Series [3] is described as follows: Therapeutic index, IC50 for Plasmodium falciparum W2 to IC50 for mice (Mus musculus) RAW264.7 cells.
For series [4], the system named is Plasmodium falciparum. The experiment in a line: Antimalarial activity against chloroquine-resistant Plasmodium falciparum W2 assessed as inhibition of [3H]hypoxanthine incorporation after 24 hrs by microtiter plate scintillation counting. In kind it is functional, organism-based.
The test system of series [5] is MCF7. Description: Cytotoxicity against human MCF7 cells after 24 hrs by MTT assay. Format: functional, cell-based. Conditions: MCF7, 24 h.
Series [6] deals with LoVo. The experiment in a line: Cytotoxicity against human LoVo cells after 24 hrs by MTT assay. Format: functional, cell-based.
Series [7] deals with DU-145. The experiment in a line: Cytotoxicity against human DU145 cells after 24 hrs by MTT assay. Format: functional, cell-based. Conditions: DU-145, 24 h.
Series [8] is described as follows: Cytotoxicity against human Hs578 cells after 24 hrs by MTT assay. Format: functional, cell-based. The conditions noted are these: Hs578, 24 h.
Series [9] has as its target Cyclin-dependent kinase 2/cyclin A (Homo sapiens, UniProt P24941). The experiment in a line: Inhibition of human CDK2/Cyclin A. In kind it is protein-complex assay.
For series [10], the target named is Cyclin-dependent kinase 1/cyclin B1 (Homo sapiens, UniProt P06493). The experiment in a line: Inhibition of human CDK1/cyclin B. In kind it is protein-complex assay.
Series [11] has as its target CDK6/cyclin D1 (Homo sapiens, UniProt Q00534). The experiment in a line: Inhibition of human CDK6/Cyclin D1. Format: protein-complex assay.
For series [12], the target named is Cyclin-dependent kinase 7/ cyclin H (Homo sapiens, UniProt P50613). Description: Inhibition of human CDK7/Cyclin H/MAT1. Format: protein-complex assay.
Sequence of Cyclin-dependent kinase 7/ cyclin H (P51946 whole entry): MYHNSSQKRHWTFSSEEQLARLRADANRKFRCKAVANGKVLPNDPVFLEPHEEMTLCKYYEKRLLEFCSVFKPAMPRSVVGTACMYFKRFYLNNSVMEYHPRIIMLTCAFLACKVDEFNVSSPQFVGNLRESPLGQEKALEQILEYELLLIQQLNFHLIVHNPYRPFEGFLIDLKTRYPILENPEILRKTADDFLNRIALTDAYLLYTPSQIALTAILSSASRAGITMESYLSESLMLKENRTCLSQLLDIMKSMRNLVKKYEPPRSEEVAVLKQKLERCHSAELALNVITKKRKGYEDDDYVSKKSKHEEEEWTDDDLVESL
Sequence of Cyclin-dependent kinase 7/ cyclin H (P50613 whole entry): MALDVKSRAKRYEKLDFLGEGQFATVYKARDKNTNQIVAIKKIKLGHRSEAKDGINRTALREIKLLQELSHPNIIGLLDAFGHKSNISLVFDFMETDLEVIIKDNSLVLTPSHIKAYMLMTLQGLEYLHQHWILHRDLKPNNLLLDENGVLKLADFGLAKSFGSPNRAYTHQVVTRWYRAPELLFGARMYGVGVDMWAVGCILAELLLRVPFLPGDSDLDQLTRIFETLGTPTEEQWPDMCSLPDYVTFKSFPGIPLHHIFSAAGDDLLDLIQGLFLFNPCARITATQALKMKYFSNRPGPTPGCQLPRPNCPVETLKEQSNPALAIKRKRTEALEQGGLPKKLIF

Sequence of Cyclin-dependent kinase 1/cyclin B1 (P06493 whole entry): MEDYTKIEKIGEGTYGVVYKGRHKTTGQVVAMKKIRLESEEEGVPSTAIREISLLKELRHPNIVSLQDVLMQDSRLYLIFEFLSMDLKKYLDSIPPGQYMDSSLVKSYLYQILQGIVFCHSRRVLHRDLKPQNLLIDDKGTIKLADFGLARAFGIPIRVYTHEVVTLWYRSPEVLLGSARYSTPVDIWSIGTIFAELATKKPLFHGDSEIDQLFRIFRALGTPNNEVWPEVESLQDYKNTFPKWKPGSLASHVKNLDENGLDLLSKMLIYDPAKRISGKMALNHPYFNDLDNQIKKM
Sequence of Cyclin-dependent kinase 1/cyclin B1 (P14635 whole entry, further chain): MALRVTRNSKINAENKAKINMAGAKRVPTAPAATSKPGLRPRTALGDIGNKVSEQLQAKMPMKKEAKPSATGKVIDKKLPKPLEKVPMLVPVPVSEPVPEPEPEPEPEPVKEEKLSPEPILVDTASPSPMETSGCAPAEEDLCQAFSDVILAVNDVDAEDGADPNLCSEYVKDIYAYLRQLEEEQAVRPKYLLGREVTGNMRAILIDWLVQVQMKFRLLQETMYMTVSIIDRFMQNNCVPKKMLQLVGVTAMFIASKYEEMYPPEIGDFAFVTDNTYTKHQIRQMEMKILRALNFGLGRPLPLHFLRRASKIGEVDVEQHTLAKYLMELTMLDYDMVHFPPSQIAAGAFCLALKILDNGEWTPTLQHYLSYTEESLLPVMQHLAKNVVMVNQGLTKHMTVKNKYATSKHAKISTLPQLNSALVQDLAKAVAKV
Sequence of CDK6/cyclin D1 (P24385 whole entry): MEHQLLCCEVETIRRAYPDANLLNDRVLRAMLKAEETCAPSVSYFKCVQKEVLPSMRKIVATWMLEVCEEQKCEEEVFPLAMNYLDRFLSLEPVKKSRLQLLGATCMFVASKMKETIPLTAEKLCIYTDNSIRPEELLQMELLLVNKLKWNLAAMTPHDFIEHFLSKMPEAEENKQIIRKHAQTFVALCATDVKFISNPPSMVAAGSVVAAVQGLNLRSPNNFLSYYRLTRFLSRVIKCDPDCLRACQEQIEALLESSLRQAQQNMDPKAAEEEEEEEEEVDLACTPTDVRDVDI
Sequence of CDK6/cyclin D1 (Q00534 whole entry): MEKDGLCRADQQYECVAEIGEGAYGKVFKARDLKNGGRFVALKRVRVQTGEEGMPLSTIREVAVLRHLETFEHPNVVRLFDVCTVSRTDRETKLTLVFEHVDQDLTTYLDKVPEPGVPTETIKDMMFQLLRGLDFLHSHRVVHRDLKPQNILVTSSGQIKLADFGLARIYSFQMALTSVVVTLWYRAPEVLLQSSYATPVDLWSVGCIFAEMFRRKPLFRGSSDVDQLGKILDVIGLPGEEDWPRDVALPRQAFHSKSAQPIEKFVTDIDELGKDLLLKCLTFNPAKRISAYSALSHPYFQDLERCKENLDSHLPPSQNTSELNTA

One may read the IC50 as the concentration that gives 50% inhibition. Consider `Cc1ccccc1NC(=O)NC(=O)c1ccccc1Cl`, for which the concentration for half-maximal inhibition (IC50) in series [1] was determined as 0.2 µM.
The same measure, in the same setting: as for `Cc1ccc(NS(=O)(=O)c2ccc(Br)cc2)cc1Cl`, the figure is 15.9 µM; as for `O=S(=O)(Nc1cccc(C(F)(F)F)c1)c1ccc(Cl)cc1`, 13.1 µM; as for `O=S(=O)(Nc1ccc(Cl)cc1SC(Cl)(Cl)Cl)c1cc(Cl)sc1Cl`, 19.7 µM.
Regarding `O=C(NNC(=O)c1ccccc1F)c1ccc2ccccc2c1`, in [1], the concentration for half-maximal inhibition (IC50) was found to be 0.4 µM.
`O=S(=O)(Nc1ccc(C(F)(F)F)cc1)c1ccc(C(F)(F)F)cc1`: 16.5 µM corresponded to half-maximal inhibition in [1] (IC50).
Same read-out and setting: next, `Cc1cc(Cl)ccc1NS(=O)(=O)c1cc(Cl)ccc1Cl`: 11 µM; `Cc1cccc(C)c1N(C(=O)CCl)S(=O)(=O)c1cc(Cl)sc1Cl`: 20.7 µM.
Same read-out and setting: next, `NS(=O)(=O)c1cc([N+](=O)[O-])c(Cl)s1`: 17.4 µM; `O=S(=O)(Nc1ccc(Cl)cc1)c1c(Cl)sc(Cl)c1Cl`: 31.5 µM.
Consider `OC(c1cc(C(F)(F)F)nc2c(C(F)(F)F)cccc12)C1CCCCN1` (stereo not drawn) [MEFLOQUINE], for which the half-maximal inhibitory concentration (IC50) in series [2] was found to be 6.5 µM; in [4], 0.1 µM; in series [5], 10.6 µM; in series [6], 7.9 µM; in [7], 14.4 µM; in series [8] it was 12.1 µM. The selectivity ratio in series [3] amounted to 65.
Molecule `Cc1cc(C)c(NS(=O)(=O)c2ccc(Br)cc2)c(C)c1NS(=O)(=O)c1ccc(Br)cc1` registered a concentration for half-maximal inhibition (IC50) in series [1] of 50.2 µM.
The molecule `N#CC(NCC(O)c1ccccc1)c1ccc(Cl)c(Cl)c1` (stereo not drawn) returned an IC50 in series [1] of 0.6 µM.
Take `Cc1ccc(N(C(=O)C(Cl)Cl)S(=O)(=O)c2cc(Cl)sc2Cl)cc1`: the IC50 in series [1] amounted to 127 µM.
Same read-out and setting: as for `O=S(=O)(c1cc(Cl)sc1Cl)N(SC(Cl)(Cl)Cl)c1ccccc1`, the figure is 29.7 µM; as for `Cc1ccc(N(C(=O)CCl)S(=O)(=O)c2c(Cl)sc(Cl)c2Cl)cc1`, 40.1 µM.
On to `Cc1ccc(N(SC(Cl)(Cl)Cl)S(=O)(=O)c2cc(Cl)sc2Cl)cc1`, for which the half-maximal inhibitory concentration (IC50) is 39.3 µM in series [2]; 11.5 µM in [9]; 0.3 µM in series [1]; 10.5 µM in series [10]; 18 µM in series [11]; 21.2 µM in series [4]. Besides, the IC50 in series [5] amounted to 30.1 µM; in series [12], 0.7 µM; in [6] it was 70.3 µM; in series [7], 53 µM; in series [8], 24.9 µM.
In series [1], `Cc1ccc(Cl)cc1NS(=O)(=O)c1cc(Cl)ccc1Cl` showed an IC50 of 45.4 µM.
Consider `O=C1Nc2ccccc2/C1=C1/Nc2ccccc2C1=O` [INDIRUBIN], for which the IC50 in series [2] was found to be 6.1 µM; in [4], 1.1 µM; in series [5] it was 6.7 µM; in [6], 2.2 µM; in series [7] it was 6.8 µM; in series [8], 6.9 µM.
For `O=S(=O)(Nc1cc(Cl)cc(Cl)c1)c1cc(Cl)sc1Cl`, in series [1], 333 µM corresponded to half-maximal inhibition (IC50).
`O=S(=O)(Nc1cccc(C(F)(F)F)c1)c1cc(Cl)c(Cl)cc1Cl`: the IC50 is 90.4 µM in series [2]; 10 µM in series [9]; 0.6 µM in series [1]; 0.1 µM in series [10]; 58.8 µM in series [11]; 24.7 µM in series [4]. In addition, the IC50 in series [5] was 63.8 µM; in series [12] it was 0.2 µM; in series [6] it was 65.1 µM; in series [7], 44.2 µM; in series [8] it was 55.1 µM.
Turning to `COc1ccc(S(=O)(=O)Nc2cccc(C(F)(F)F)c2)cc1`, in series [1], the IC50 is 48.4 µM.
On the same count and under the same terms, as for `O=C(CBr)N(c1ccc(Cl)cc1)S(=O)(=O)c1cc(Cl)sc1Cl`, the figure is 0.8 µM.
With `O=C1Cc2c([nH]c3ccc([N+](=O)[O-])cc23)-c2ccccc2N1` [ALSTERPAULLONE], the half-inhibitory concentration (IC50) in series [2] is 2.2 µM; in series [5] it was 2.7 µM; in [6] it was less than 1 µM; in [7], 1.1 µM; in series [8], 1.9 µM.
Regarding `Cc1ccc(Cl)cc1S(=O)(=O)Nc1ccc(Cl)c(Cl)c1`, the IC50 was 76.6 µM in series [2]; 10.5 µM in [9]; 15.1 µM in [1]; 0.8 µM in series [10]; 110 µM in series [11]; 17 µM in series [4]. The IC50 in [5] was found to be 57.3 µM; in series [12] it was 0.4 µM; in series [6] it was 55 µM; in series [7], 45.4 µM; in [8], 54 µM.
For the molecule `O=C(CBr)N(c1ccccc1)S(=O)(=O)c1cc(Cl)sc1Cl`, the IC50 in [2] stood at 89.5 µM; in [9], 28.5 µM; in series [1], 0.6 µM; in series [10], 21.5 µM; in series [11] it was 34.9 µM; in [4], 23.3 µM. In addition, the half-inhibitory concentration (IC50) in series [5] is 62 µM; in series [12], 33.4 µM; in [6], 71.6 µM; in series [7], 91 µM; in [8], 51.1 µM.
In [1], `O=S(=O)(Nc1ccccc1)c1cc(Cl)sc1Cl` came in with an IC50 of 14.9 µM.
Take `Cc1ccc(NS(=O)(=O)c2cc(Cl)sc2Cl)cc1`: the IC50 in series [2] turned out to be 74.7 µM; in series [9], 31.4 µM; in [1], 0.6 µM; in [10], 49.3 µM; in series [11], 51.3 µM; in series [4], 31 µM. Besides, the IC50 in series [5] turned out to be 66.1 µM; in series [12] it was 0.8 µM; in series [6], 69.3 µM; in series [7] it was 81.1 µM; in series [8] it was 40.2 µM.
